This is an account of results in patent US10988459B2 (priority 2015, dated 2021).

Molecules are shown by their SMILES. Read-outs that look alike come from different tables or passages of the source.

The test addresses human RIP1 kinase domain (2-375) (Homo sapiens (Human), UniProt Q13546). The experiment in a line: biochemical. The format is biochemical. An outline of the steps: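 Ki^app comes from Morrison tight-binding fits of fractional activity versus compound concentration. Activity was read as ADP production, via tracer displacement lowering fluorescence polarization (633 nm laser). Conditions: 2 h, 50 nM insect-cell-expressed enzyme, 50 uM ATP, 30 mM MgCl2, 1 mM DTT, 0.5% DMSO, pH 7.5 Hepes.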

[1] abbreviates: human RIP1 kinase domain (2-375), Transcreener ADP assay, 50 uM ATP, 2 hours incubation, read-out: RIP1 Ki.
Setting [2] is: tight-binding apparent inhibition constant, human RIP1 kinase domain (2-375) 50 nM, 50 uM ATP, 2 hours, read-out: Ki.
Setting [3] is: Table 1, apparent Ki (Morrison tight-binding fit), 50 nM RIP1 kinase domain, 50 uM ATP, 2 hours incubation, read-out: RIP1 Ki.

Sequence of human RIP1 kinase domain (2-375) (Q13546 2-375): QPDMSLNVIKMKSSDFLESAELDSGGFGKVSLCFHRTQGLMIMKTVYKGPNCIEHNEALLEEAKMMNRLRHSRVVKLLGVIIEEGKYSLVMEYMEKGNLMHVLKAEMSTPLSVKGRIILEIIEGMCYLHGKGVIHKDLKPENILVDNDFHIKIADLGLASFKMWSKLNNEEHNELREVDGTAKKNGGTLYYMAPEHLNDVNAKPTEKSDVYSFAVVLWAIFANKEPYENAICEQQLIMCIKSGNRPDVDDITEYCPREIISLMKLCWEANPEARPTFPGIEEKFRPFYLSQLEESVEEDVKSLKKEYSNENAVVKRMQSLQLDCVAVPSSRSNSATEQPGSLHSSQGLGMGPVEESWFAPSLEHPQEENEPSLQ

As for `CC(c1ccc(F)cc1)n1cnc(C(=O)N[C@H]2CCn3nc(C4CC4)cc3N(C)C2=O)n1` (stereo in doubt) [Example 290, (S)—N-(2-cyclopropyl-4-methyl-5-oxo-5,6,7,8-tetrahydro-4H-pyrazolo[1,5-a][1,3]diazepin-6-yl)-1-(1-(4-fluorophenyl)ethyl)-1H-1,2,4-triazole-3-carboxamide], the Ki under setting [1] is 117 nM. `CN1C(=O)[C@@H](NC(=O)c2ncn(CC3CC3(F)F)n2)CCn2nc(C3CC3)cc21` (stereo in doubt) [Example 291, (S)—N-(2-cyclopropyl-4-methyl-5-oxo-5,6,7,8-tetrahydro-4H-pyrazolo[1,5-a][1,3]diazepin-6-yl)-1-((2,2-difluorocyclopropyl)methyl)-1H-1,2,4-triazole-3-carboxamide]: the Ki under setting [1] turned out to be 820 nM. On the same count and under the same terms, then `CC(c1ccccc1)n1cnc(C(=O)N[C@H]2CCn3nc(C4CC4)cc3N(C)C2=O)n1` (stereo in doubt) [Example 292, (S)—N-(2-cyclopropyl-4-methyl-5-oxo-5,6,7,8-tetrahydro-4H-pyrazolo[1,5-a][1,3]diazepin-6-yl)-1-(1-phenylethyl)-1H-1,2,4-triazole-3-carboxamide], with 100 nM. `Cc1cc2n(n1)CC[C@H](NC(=O)c1ncn3ccc(C(F)(F)F)cc13)C(=O)N2C` (stereo in doubt) [Example 337, N-(2,4-dimethyl-5-oxo-5,6,7,8-tetrahydro-4H-pyrazolo[1,5-a][1,3]diazepin-6-yl)-7-(trifluoromethyl)imidazo[1,5-a]pyridine-1-carboxamide]: the Ki (Table 3, apparent Ki (Morrison tight-binding fit), 50 nM RIP1 kinase domain, 50 uM ATP, 2 hours incubation, read-out: Ki) was 536 nM. As to `Cc1cc2n(n1)CC[C@H](NC(=O)c1ncn(CC3CC(C)C3)n1)C(=O)N2C` (stereo in doubt) [Example 491, 1-[(3-methylcyclobutyl)methyl]-N-(6S)-2,4-dimethyl-5-oxo-7,8-dihydro-6H-pyrazol[1,5-a][1,3]diazepin-6-yl-1,2,4-triazole-3-carboxamide], the Ki under setting [2] came to 37 nM. In the case of `O=C(N[C@H]1COc2cc(F)cc(F)c2NC1=O)c1nc2n(n1)CCC2c1ccccc1` (stereo in doubt) [Example 625, (7S)-7-phenyl-N-[(3S)-6,8-difluoro-4-oxo-3,5-dihydro-2H-1,5-benzoxazepin-3-yl]-6,7-dihydro-5H-pyrrolo[1,2-b][1,2,4]triazole-2-carboxamide], under setting [2], the Ki came out at 450 nM. The same measure, in the same setting: the figure for `O=C(N[C@H]1COc2cc(F)cc(F)c2NC1=O)c1nc2n(n1)CCC2c1ccccc1` (stereo in doubt) [Example 626, (7R)-7-phenyl-N-[(3S)-6,8-difluoro-4-oxo-3,5-dihydro-2H-1,5-benzoxazepin-3-yl]-6,7-dihydro-5H-pyrrolo[1,2-b][1,2,4]triazole-2-carboxamide] is 14 nM; for `CN1C(=O)[C@H](NC(=O)c2ncn(Cc3ccccc3)n2)CCn2nc([C@@H]3CC3(F)F)cc21` (stereo in doubt) [Example 675, 1-benzyl-N-[rac-(6R)-4-methyl-5-oxo-2-[rac-(1S)-2,2-difluorocyclopropyl]-7,8-dihydro-6H-pyrazolo[1,5-a] [1,3]diazepin-6-yl]-1,2,4-triazole-3-carcoxamide] it is 16.4 nM. Same read-out and setting: then `CN1C(=O)[C@@H](NC(=O)c2ncn(Cc3ccccc3)n2)CCn2nc([C@H]3CC3(F)F)cc21` (stereo in doubt) [Example 679, 1-benzyl-N-[rac-(6S)-4-methyl-5-oxo-2-[rac-(1R)-2,2-difluorocyclopropyl]-7,8-dihydro-6H-pyrazolo[1,5-a] [1,3diazepin-6-yl]-1,2,4-triazole-3-carboxamide], with 21.6 nM; and `CN1C(=O)[C@H](NC(=O)c2ncn(Cc3ccc(F)cc3)n2)CCn2nc(C3CC3)cc21` (stereo in doubt) [Example 680, 1-[(4-fluorophenyl)methyl]-N-[rac-(6R)-2-cyclopropyl-4-methyl-5-oxo-7,8-dihydro-6H-pyrazolo[1,5-a][1,3]diazepin-6-yl]-1,2,4-triazole-3-carboxamide], with 9200 nM. Same read-out and setting: then `CN1C(=O)[C@@H](NC(=O)c2ncn(Cc3ccc(F)cc3)n2)CCn2nc(C3CC3)cc21` (stereo in doubt) [Example 681, 1-[(4-fluorophenyl)methyl]-N-[rac-(6S)-2-cyclopropyl-4-methyl-5-oxo-7,8-dihydro-6H-pyrazolo[1,5-a][1,3]diazepin-6-yl]-1,2,4-triazole-3-carboxamide], with 23.7 nM.

With `CN1C(=O)[C@@H](NC(=O)c2n[nH]c3c2CC2CC2(C)C3)COc2ccccc21` (stereo partly drawn) [Example 1, 5a-methyl-N—((S)-5-methyl-4-oxo-2,3,4,5-tetrahydrobenzo[b][1,4]oxazepin-3-yl)-1,4,4a,5,5a,6-hexahydrocyclopropa[f]indazole-3-carboxamide], the Ki under setting [3] is 4700 nM. On the same count and under the same terms, the figure for `CN1C(=O)[C@@H](NC(=O)c2n[nH]c3c2CCC2(CC2)C3)COc2ccccc21` [Example 2, (S)—N-(5-methyl-4-oxo-2,3,4,5-tetrahydrobenzo[b][1,4]oxazepin-3-yl)-1′,4′,5′,7′-tetrahydrospiro[cyclopropane-1,6′-indazole]-3′-carboxamide] is 6500 nM. Regarding `CN1C(=O)[C@@H](NC(=O)c2n[nH]c3c2CC(C(C)(C)C)CC3)COc2ccccc21` (stereo partly drawn) [Example 3, 5-(tert-butyl)-N—((S)-5-methyl-4-oxo-2,3,4,5-tetrahydrobenzo[b][1,4]oxazepin-3-yl)-4,5,6,7-tetrahydro-1H-indazole-3-carboxamide], the Ki (read-out: RIP1 Ki) came out at 68.8 nM. For `O=C(N[C@H]1COc2ccccc2NC1=O)c1n[nH]c2c1CC1CC1C2` (stereo partly drawn) [Example 4, N—((S)-4-oxo-2,3,4,5-tetrahydrobenzo[b][1,4]oxazepin-3-yl)-1,4,4a,5,5a,6-hexahydrocyclopropa[f]indazole-3-carboxamide], under setting [3], the Ki worked out at 5500 nM. On to `CN1C(=O)[C@@H](NC(=O)c2n[nH]c3c2CN(CC(F)(F)F)CC3)COc2ccccc21` [Example 5, (S)—N-(5-methyl-4-oxo-2,3,4,5-tetrahydrobenzo[b][1,4]oxazepin-3-yl)-5-(2,2,2-trifluoroethyl)-4,5,6,7-tetrahydro-1H-pyrazolo[4,3-c]pyridine-3-carboxamide], for which the Ki under setting [3] turned out to be 1500 nM. On to `CN1C(=O)[C@@H](NC(=O)c2cc3n(n2)CCCN(c2ccccc2)C3)COc2ccccc21` [Example 6, N-[(3S)-5-methyl-4-oxo-2,3-dihydro-1,5-benzoxazepin-3-yl]-5-phenyl-4,6,7,8-tetrahydro pyrazolo[1,5-a][1,4]diazepine-2-carboxamide], for which, under setting [3], the Ki was 375 nM. Take `CN1C(=O)[C@@H](NC(=O)c2n[nH]c3c2CC(c2ccccc2)OC3)COc2ccccc21` (stereo partly drawn) [Example 9, N—((S)-5-methyl-4-oxo-2,3,4,5-tetrahydrobenzo[b][1,4]oxazepin-3-yl)-5-phenyl-1,4,5,7-tetrahydropyrano[3,4-c]pyrazole-3-carboxamide]: under setting [3], the Ki is 282 nM. Turning to `CC1Cn2c(cnc2C(=O)N[C@H]2COc3ccccc3N(C)C2=O)CO1` (stereo partly drawn) [Example 10, 6-methyl-N—((S)-5-methyl-4-oxo-2,3,4,5-tetrahydrobenzo[b][1,4]oxazepin-3-yl)-6,8-dihydro-5H-imidazo[5,1-c][1,4]oxazine-3-carboxamide], the Ki under setting [3] was determined as 2600 nM. On the same count and under the same terms, then `CC1CCc2cnc(C(=O)N[C@H]3COc4ccccc4N(C)C3=O)n2C1` (stereo partly drawn) [Example 11, 6-methyl-N—((S)-5-methyl-4-oxo-2,3,4,5-tetrahydrobenzo[b][1,4]oxazepin-3-yl)-5,6,7,8-tetrahydroimidazo[1,5-a]pyridine-3-carboxamide], with 329 nM. Same read-out and setting: the figure for `CN1C(=O)[C@@H](NC(=O)c2n[nH]c3c2CCC(c2ccccc2)C3)COc2ccccc21` (stereo partly drawn) [Example 12, N-(5-methyl-4-oxo-2,3,4,5-tetrahydrobenzo[b][1,4]oxazepin-3-yl)-6-phenyl-4,5,6,7-tetrahydro-1H-indazole-3-carboxamide] is over 3100 nM; for `O=C(N[C@H]1COc2[nH]ncc2NC1=O)c1ccn(Cc2ccc(F)c(F)c2)n1` [Example 16, (S)-1-(3,4-difluorobenzyl)-N-(5-oxo-4,5,6,7-tetrahydro-1H-pyrazolo[3,4-b][1,4]oxazepin-6-yl)-1H-pyrazole-3-carboxamide] it is over 10000 nM. On the same count and under the same terms, then `O=C(N[C@H]1COc2[nH]ncc2NC1=O)c1cn(Cc2ccc(F)c(F)c2)cn1` [Example 17, 1-[(3,4-difluorophenyl)methyl]-N-[(6S)-5-oxo-1,4,6,7-tetrahydropyrazolo[3,4-b][1,4]oxazepin-6-yl]imidazole-4-carboxamide], with over 10000 nM. With `CN1C(=O)[C@@H](NC(=O)c2n[nH]c3c2CC(C)(C)CC3)COc2ccccc21` [Example 18, 5,5-dimethyl-N-[(3S)-5-methyl-4-oxo-2,3-dihydro-1,5-benzoxazepin-3-yl]-1,4,6,7-tetrahydroindazole-3-carboxamide], the Ki (read-out: RIP1 Ki) was 415 nM.

In the case of `CN1C(=O)[C@@H](NC(=O)c2n[nH]c3c2CC(n2cccn2)CC3)COc2ccccc21` (stereo partly drawn) [Example 20, N—((S)-5-methyl-4-oxo-2,3,4,5-tetrahydrobenzo[b][1,4]oxazepin-3-yl)-5-(1H-pyrazol-1-yl)-4,5,6,7-tetrahydro-1H-indazole-3-carboxamide], the Ki under setting [3] amounted to 745 nM. Consider `CN1C(=O)[C@@H](NC(=O)c2cc3c(cn2)COC3(C)C)COc2ccccc21` [Example 22, (S)-1,1-dimethyl-N-(5-methyl-4-oxo-2,3,4,5-tetrahydrobenzo[b][1,4]oxazepin-3-yl)-1,3-dihydrofuro[3,4-c]pyridine-6-carboxamide], for which the Ki under setting [3] was determined as 898 nM. For the compound `CN1C(=O)[C@@H](NC(=O)c2cc3c(cn2)CCCC3)COc2ccccc21` [Example 23, (S)—N-(5-methyl-4-oxo-2,3,4,5-tetrahydrobenzo[b][1,4]oxazepin-3-yl)-5,6,7,8-tetrahydroisoquinoline-3-carboxamide], under setting [3], the Ki is 2000 nM.
